Measurements taken from patent publication US10519148B2, “Acrylic acid derivative, preparation method and use in medicine thereof” (Zhejiang Hisun Pharmaceutical Co., Ltd., priority 2015, dated 2019).

Columns and labels:
[1] = target: T1, recombinant human estrogen receptor ERα ligand binding domain (Homo sapiens, UniProt P03372); test: LanthaScreen TR-FRET competition binding assay with estrogen receptor ERα ligand binding domain; conditions: TR-FRET competition with Fluormone ES2, ERα-LBD (GST); read-out: IC50 (nM) ER Reporter
T1 construct: purchased Invitrogen PV4543
T1 sequence (P03372 311-547 limits assumed): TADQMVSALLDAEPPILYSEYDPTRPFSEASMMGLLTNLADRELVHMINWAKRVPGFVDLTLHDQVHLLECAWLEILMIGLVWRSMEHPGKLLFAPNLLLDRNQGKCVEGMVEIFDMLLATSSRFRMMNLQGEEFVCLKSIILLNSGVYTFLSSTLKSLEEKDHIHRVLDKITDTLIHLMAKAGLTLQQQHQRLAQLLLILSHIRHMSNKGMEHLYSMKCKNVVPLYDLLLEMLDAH
Text: The present invention utilizes the Lantha Screen™ Time-resolved Fluorescence Resonance Energy Transfer (TR-FRET) to assess the ability of the compounds to bind to the isolated ligand domain of estrogen receptor Era in competition assay. The fluorophore (Fluormone ES2, product code P2645) and the recombinant human estrogen receptor ERα ligand binding domain (product code PV4543) using in the TR-FRET were purchased from Invitrogen. The design principle of this assay is as follows: the estrogen receptor ERα-LBD (GST) and the fluorophore-containing ligand form a receptor/fluorophore complex, followed by the addition of terbium (Tb)-labeled anti-GST antibody (product code PV3551), the indirect labeling of the receptor is achieved by the linkage with the GST on the receptor, and the ability of competitive coordination between the test compound and the fluorescent ligand with the receptor is evaluated by detecting the attenuation of the TR-FRET effect between the chromophore (Tb-anti-GST antibody) on the fluorescent label ERα and the fluorescent ligand (Fluormone ES2). We used the following sample preparation and test methods for the test of the synthesized compounds. The instrument we used is Beckman Coulter BioPAPTR FRD microfluidic workstation.
(1) Acoustic dispense 120 nL of the test compound into a black low volume 384 well assay plates;
(2) Preparation of 1×ERα-LBD/Tb-anti-GST antibody complex in ES2 buffer and incubation therein for 20 minutes;
(3) The 1×ES2 was further added to the above ERα-LBD/Tb-anti-GST antibody complex solution before the test;
(4) 12 μL of the ERα-LBD/Tb-anti-GST antibody complex solution prepared in step 3 was added to the wells of the assay plate;
(5) The plates were shielded from light and incubated at room temperature for one hour; (6) At 337 nm excitation light, the emission light at 490 nm and 520 nm was detected by BMG Phera STAR.
The test compounds of a series of concentrations (10 mM, 0.1 mM, 1 μM and 10 nM) prepared on a microplate were transferred to the analytical plate using Labcyte Echo 550. 120 nL of DMSO solution for each test compound was added to each well of the assay plate and tested at 12 different concentrations (100, 29.17, 10.42, 2.083, 1, 0.292, 0.104, 0.02083, 0.01, 0.0029, 0.00104, 0.001 μM). The TR-FRET primitive fluorescence data was used to obtain the fitting curve software such as Origin or Genedata. Half maximal inhibitory concentration IC50 of each compound was used to characterize the competitive binding ability of the test compound with the estrogen receptor ERα. IC50 represents the concentration of the test compound that was calculated when the coordination of the tracer fluorophore (ES2) with the estrogen receptor was reduced by 50%, and the IC50 was determined as shown in Table 3.

[2] = tested on: MCF-7 human breast cancer cell line; test: Inhibition of MCF-7 cell proliferation (CCK-8); format: cell-based; conditions: MCF7, MCF-7 cells, 72 hours
Procedure: 1. Reagents and Consumables
Cell Counting Reagent Kit 8 (Cell Counting Kit-8, Cat# CK04-13, Dojindo);
96-well culture plate (Cat #3599, Corning Costar);
Medium and fetal bovine serum (GIBCO);
Desktop Microplate Reader (SpectraMax M5 Microplate Reader, Molecular Devices);
MCF-7 human breast cancer cell line (purchased from Shanghai cell resource center, Chinese Academy of Sciences).
2. Preparation of Reagents
Preparation of culture medium: MEM+10% FBS+0.01 mg/ml Human recombinant insulin; Preparation of the compound: The compounds were diluted with DMSO to a final concentration of 10 mM;
(1) The logarithmic growth phase cells were collected, counted, resuspended the cells with complete culture medium. The cells were adjusted to the appropriate concentration (determined according to the cell density optimization test results) and inoculated into 96-well plates, 100 μL of cell suspension per well. The cells were incubated in an incubator for 24 hours at 37° C. with 100% relative humidity, 5% CO2; […]
(5) The absorbance at 450 nm wavelength was measured on a SpectraMax M5 Microplate Reader after gently shaking. The inhibition rate was calculated using the absorbance at 650 nm as a reference. […]

Row | Compound | IC50 [1] | IC50 [2]
1 | C[C@@H]1Cc2c([nH]c3ccccc23)[C@@H](c2c(F)cc(/C=C/C(=O)O)cc2F)N1CC1(F)CC1 [Example 1, (E)-3-(3,5-difluoro-4-((1R,3R)-2-((1-fluorocyclopropyl)methyl)-3-methyl-2,3,4,9-tetrahydro-1H-pyrido[3,4-b]indol-1-yl)phenyl)acrylic acid] | 0.1 to 10 nM | 0.34 nM
2 | C[C@@H]1Cc2c([nH]c3cccc(F)c23)[C@@H](c2c(F)cc(/C=C/C(=O)O)cc2F)N1CC1(F)CC1 [Example 12, (E)-3-(3,5-difluoro-4-((1R,3R)-5-fluoro-2-((1-fluorocyclopropyl)methyl)-3-methyl-2,3,4,9-tetrahydro-1H-pyrido[3,4-b]indol-1-yl)phenyl)acrylic acid] | 0.1 to 10 nM | 1.45 nM
